ChEMBL document CHEMBL5724914, “Linking interpersonal differences in gut microbiota composition and drug biotransformation activity” (2024)

Experiments:
[1] = The drug is tested on WLS-082 corresponding to human gut metagenome with ENA study accession number: PRJEB37062 and ENA sample accession number: ERS12561751 for biotransformation under anaerobic condition. The drug concentrations were measured over 9 timepoints collected between 0 and 24 hours of incubation by liquid-chromatography-coupled mass spectrometry (LC–MS); details: 2 µM
[2] = human gut metagenome, 24 h, 2 µM
[3] = The drug is tested on Z-005 corresponding to metagenome with ENA study accession number: PRJEB37062 and ENA sample accession number: ERS12561805 for biotransformation under anaerobic condition. The drug concentrations were measured over 9 timepoints collected between 0 and 24 hours of incubation by liquid-chromatography-coupled mass spectrometry (LC–MS); details: 2 µM
[4] = human gut metagenome, 24 h, 2 µM; remark: listed apart in the source
[5] = The drug is tested on WLS-007 corresponding to human gut metagenome with ENA study accession number: PRJEB37062 and ENA sample accession number: ERS12561742 for biotransformation under anaerobic condition. The drug concentrations were measured over 9 timepoints collected between 0 and 24 hours of incubation by liquid-chromatography-coupled mass spectrometry (LC–MS); details: 2 µM
[6] = human gut metagenome, 24 h, 2 µM; remark: listed apart in the source
[7] = The drug is tested on WLS-350 corresponding to human gut metagenome with ENA study accession number: PRJEB37062 and ENA sample accession number: ERS12561789 for biotransformation under anaerobic condition. The drug concentrations were measured over 9 timepoints collected between 0 and 24 hours of incubation by liquid-chromatography-coupled mass spectrometry (LC–MS); details: 2 µM
[8] = human gut metagenome, 24 h, 2 µM; remark: listed apart in the source
[9] = human gut metagenome, 24 h, 2 µM; remark: listed apart in the source
[10] = human gut metagenome, 24 h, 2 µM; remark: listed apart in the source
[11] = The drug is tested on WLS-027 corresponding to human gut metagenome with ENA study accession number: PRJEB37062 and ENA sample accession number: ERS12561744 for biotransformation under anaerobic condition. The drug concentrations were measured over 9 timepoints collected between 0 and 24 hours of incubation by liquid-chromatography-coupled mass spectrometry (LC–MS); details: 2 µM
[12] = human gut metagenome, 24 h, 2 µM; remark: listed apart in the source
[13] = The drug is tested on Z-004 corresponding to metagenome with ENA study accession number: PRJEB37062 and ENA sample accession number: ERS12561804 for biotransformation under anaerobic condition. The drug concentrations were measured over 9 timepoints collected between 0 and 24 hours of incubation by liquid-chromatography-coupled mass spectrometry (LC–MS); details: 2 µM
[14] = The drug is tested on Z-027 corresponding to metagenome with ENA study accession number: PRJEB37062 and ENA sample accession number: ERS12561826 for biotransformation under anaerobic condition. The drug concentrations were measured over 9 timepoints collected between 0 and 24 hours of incubation by liquid-chromatography-coupled mass spectrometry (LC–MS); details: 2 µM
[15] = human gut metagenome, 24 h, 2 µM; remark: listed apart in the source
[16] = human gut metagenome, 24 h, 2 µM; remark: listed apart in the source
[17] = human gut metagenome, 24 h, 2 µM; remark: listed apart in the source
[18] = The drug is tested on Z-021 corresponding to metagenome with ENA study accession number: PRJEB37062 and ENA sample accession number: ERS12561820 for biotransformation under anaerobic condition. The drug concentrations were measured over 9 timepoints collected between 0 and 24 hours of incubation by liquid-chromatography-coupled mass spectrometry (LC–MS); details: 2 µM
[19] = human gut metagenome, 24 h, 2 µM; remark: listed apart in the source
[20] = The drug is tested on Z-016 corresponding to mouse gut metagenome with ENA study accession number: PRJEB37062 and ENA sample accession number: ERS12561815 for biotransformation under anaerobic condition. The drug concentrations were measured over 9 timepoints collected between 0 and 24 hours of incubation by liquid-chromatography-coupled mass spectrometry (LC–MS); details: 2 µM
Note: call rule not given here.

CN[C@H]1CC[C@@H](c2ccc(Cl)c(Cl)c2)c2ccccc21 [SERTRALINE]
Bacterial Biotransformation [1]: Compound metabolized
Bacterial Biotransformation [2]: Compound metabolized
Bacterial Biotransformation [3]: Compound NOT metabolized
Bacterial Biotransformation [4]: Compound metabolized
Bacterial Biotransformation [5]: Compound metabolized
Bacterial Biotransformation [6]: Compound NOT metabolized
Bacterial Biotransformation [7]: Compound NOT metabolized
Bacterial Biotransformation [8]: Compound metabolized
Bacterial Biotransformation [9]: Compound metabolized
Bacterial Biotransformation [10]: Compound NOT metabolized
Bacterial Biotransformation [11]: Compound metabolized
Bacterial Biotransformation [12]: Compound metabolized
Bacterial Biotransformation [13]: Compound metabolized
Bacterial Biotransformation [14]: Compound metabolized
Bacterial Biotransformation [15]: Compound NOT metabolized
Bacterial Biotransformation [16]: Compound NOT metabolized
Bacterial Biotransformation [17]: Compound metabolized
Bacterial Biotransformation [18]: Compound metabolized
Bacterial Biotransformation [19]: Compound metabolized
Bacterial Biotransformation [20]: Compound NOT metabolized

O=C(O)CCC(=O)O.O=C(O[C@H]1CN2CCC1CC2)N1CCc2ccccc2[C@@H]1c1ccccc1 [SOLIFENACIN SUCCINATE]
Bacterial Biotransformation [1]: Compound metabolized
Bacterial Biotransformation [2]: Compound metabolized
Bacterial Biotransformation [3]: Compound metabolized
Bacterial Biotransformation [4]: Compound metabolized
Bacterial Biotransformation [5]: Compound metabolized
Bacterial Biotransformation [6]: Compound metabolized
Bacterial Biotransformation [7]: Compound metabolized
Bacterial Biotransformation [8]: Compound metabolized
Bacterial Biotransformation [9]: Compound metabolized
Bacterial Biotransformation [10]: Compound NOT metabolized
Bacterial Biotransformation [11]: Compound metabolized
Bacterial Biotransformation [12]: Compound NOT metabolized
Bacterial Biotransformation [13]: Compound metabolized
Bacterial Biotransformation [14]: Compound NOT metabolized
Bacterial Biotransformation [15]: Compound NOT metabolized
Bacterial Biotransformation [16]: Compound NOT metabolized
Bacterial Biotransformation [17]: Compound metabolized
Bacterial Biotransformation [18]: Compound metabolized
Bacterial Biotransformation [19]: Compound metabolized
Bacterial Biotransformation [20]: Compound NOT metabolized

O=C(CCCN1CCC2(CC1)C(=O)NCN2c1ccccc1)c1ccc(F)cc1 [SPIPERONE]
Bacterial Biotransformation [1]: Compound NOT metabolized
Bacterial Biotransformation [2]: Compound NOT metabolized
Bacterial Biotransformation [3]: Compound NOT metabolized
Bacterial Biotransformation [4]: Compound metabolized
Bacterial Biotransformation [5]: Compound NOT metabolized
Bacterial Biotransformation [6]: Compound metabolized
Bacterial Biotransformation [7]: Compound NOT metabolized
Bacterial Biotransformation [8]: Compound metabolized
Bacterial Biotransformation [9]: Compound metabolized
Bacterial Biotransformation [10]: Compound NOT metabolized
Bacterial Biotransformation [11]: Compound NOT metabolized
Bacterial Biotransformation [12]: Compound NOT metabolized
Bacterial Biotransformation [13]: Compound NOT metabolized
Bacterial Biotransformation [14]: Compound NOT metabolized
Bacterial Biotransformation [15]: Compound NOT metabolized
Bacterial Biotransformation [16]: Compound NOT metabolized
Bacterial Biotransformation [17]: Compound metabolized
Bacterial Biotransformation [18]: Compound NOT metabolized
Bacterial Biotransformation [19]: Compound metabolized
Bacterial Biotransformation [20]: Compound NOT metabolized

CCOc1ccccc1OCCN[C@H](C)Cc1ccc(OC)c(S(N)(=O)=O)c1.Cl [TAMSULOSIN HYDROCHLORIDE]
Bacterial Biotransformation [1]: Compound NOT metabolized
Bacterial Biotransformation [2]: Compound NOT metabolized
Bacterial Biotransformation [3]: Compound NOT metabolized
Bacterial Biotransformation [4]: Compound metabolized
Bacterial Biotransformation [5]: Compound NOT metabolized
Bacterial Biotransformation [6]: Compound NOT metabolized
Bacterial Biotransformation [7]: Compound NOT metabolized
Bacterial Biotransformation [8]: Compound metabolized
Bacterial Biotransformation [9]: Compound NOT metabolized
Bacterial Biotransformation [10]: Compound NOT metabolized
Bacterial Biotransformation [11]: Compound NOT metabolized
Bacterial Biotransformation [12]: Compound NOT metabolized
Bacterial Biotransformation [13]: Compound NOT metabolized
Bacterial Biotransformation [14]: Compound NOT metabolized
Bacterial Biotransformation [15]: Compound NOT metabolized
Bacterial Biotransformation [16]: Compound NOT metabolized
Bacterial Biotransformation [17]: Compound NOT metabolized
Bacterial Biotransformation [18]: Compound metabolized
Bacterial Biotransformation [19]: Compound NOT metabolized
Bacterial Biotransformation [20]: Compound NOT metabolized

COc1cc2nc(N3CCN(C(=O)C4CCCO4)CC3)nc(N)c2cc1OC (stereo not given) [TERAZOSIN]
Bacterial Biotransformation [1]: Compound metabolized
Bacterial Biotransformation [2]: Compound NOT metabolized
Bacterial Biotransformation [3]: Compound metabolized
Bacterial Biotransformation [4]: Compound metabolized
Bacterial Biotransformation [5]: Compound metabolized
Bacterial Biotransformation [6]: Compound NOT metabolized
Bacterial Biotransformation [7]: Compound NOT metabolized
Bacterial Biotransformation [8]: Compound NOT metabolized
Bacterial Biotransformation [9]: Compound metabolized
Bacterial Biotransformation [10]: Compound NOT metabolized
Bacterial Biotransformation [11]: Compound NOT metabolized
Bacterial Biotransformation [12]: Compound NOT metabolized
Bacterial Biotransformation [13]: Compound NOT metabolized
Bacterial Biotransformation [14]: Compound NOT metabolized
Bacterial Biotransformation [15]: Compound NOT metabolized
Bacterial Biotransformation [16]: Compound NOT metabolized
Bacterial Biotransformation [17]: Compound NOT metabolized
Bacterial Biotransformation [18]: Compound NOT metabolized
Bacterial Biotransformation [19]: Compound metabolized
Bacterial Biotransformation [20]: Compound NOT metabolized

c1ccc2[nH]c(-c3cscn3)nc2c1 [THIABENDAZOLE]
Bacterial Biotransformation [1]: Compound NOT metabolized
Bacterial Biotransformation [2]: Compound NOT metabolized
Bacterial Biotransformation [3]: Compound NOT metabolized
Bacterial Biotransformation [4]: Compound metabolized
Bacterial Biotransformation [5]: Compound NOT metabolized
Bacterial Biotransformation [6]: Compound NOT metabolized
Bacterial Biotransformation [7]: Compound NOT metabolized
Bacterial Biotransformation [8]: Compound metabolized
Bacterial Biotransformation [9]: Compound NOT metabolized
Bacterial Biotransformation [10]: Compound NOT metabolized
Bacterial Biotransformation [11]: Compound NOT metabolized
Bacterial Biotransformation [12]: Compound NOT metabolized
Bacterial Biotransformation [13]: Compound NOT metabolized
Bacterial Biotransformation [14]: Compound NOT metabolized
Bacterial Biotransformation [15]: Compound NOT metabolized
Bacterial Biotransformation [16]: Compound NOT metabolized
Bacterial Biotransformation [17]: Compound NOT metabolized
Bacterial Biotransformation [18]: Compound NOT metabolized
Bacterial Biotransformation [19]: Compound NOT metabolized
Bacterial Biotransformation [20]: Compound NOT metabolized
